This note sets out measurements from patent US8324131B2, “Composition and method for controlling plant diseases” (Sumitomo Chemical Company, Limited, priority 2008, dated 2012).

The test system of test [1] is pathogen of cucumber gray mold. In words: Cucumber gray mold foliar spray test (Test Example 2). Format: in vivo, Botrytis cinerea. The conditions noted are these: 12.5 ppm of each test compound; for Actual control value: spray to stalk and leaves of cucumber seedlings, 12° C., high humidity, 6 days. The source says: A plastic pot was filled with sandy soil and cucumber (Sagamihanjiro) seeds were disseminated on it. Then the seeds were allowed to grow in a glasshouse for 12 days. A wettable powder of ethaboxam and a wettable powder of metconazole were individually diluted with water and then mixed to prepare mixed liquids containing ethaboxam and metconazole in predetermined concentration. These mixed liquids were sprayed to the stalk and leaves of cucumber seedlings to adhere them sufficiently on the surface of leaves of the seedlings. After spraying, the cucumber seedlings were air-dried and a PDA medium containing spores of pathogen of cucumber gray mold was placed onto the leaves of the seedlings. Then the plants were allowed to stand at 12° C. under high humidity for 6 days, and thereafter control effect was checked.
As a comparison, mixed liquids containing ethaboxam and triadimefon, mixed liquids containing ethaboxam and triadimenol, and mixed liquids containing ethaboxam and imazalil were prepared, sprayed to the stalk and leaves of cucumber seedlings to adhere them sufficiently on the surface of leaves of the seedlings, and subjected to similar tests, respectively. In addition, the above wettable powder of ethaboxam and the above wettable powder of metconazole were individually diluted with water to prepare liquids containing ethaboxam in predetermined concentration and liquids containing metconazole in predetermined concentration and then subjected to similar tests.
The incidence of disease was calculated by Equation 4 and the control value was calculated by Equation 2 based on the incidence of disease.
Incidence of disease=(diameter of leaf spot of plant in treated area)/(diameter of leaf spot of plant in untreated area)×100 “Equation 4”

The subject of test [2] is Pythium ultimum, pathogen of cucumber damping-off. In words: Cucumber damping-off seed treatment test (Test Example 1). Format: in vivo. The conditions noted are these: 18° C., 13 days. The source says: An acetone solution of ethaboxam and an acetone solution of metconazole were mixed to prepare mixed liquids containing ethaboxam and metconazole in predetermined concentration. These mixed liquids were adhered on the surface of cucumber (Sagamihanjiro) seeds and allowed to stand still overnight. A plastic pot was filled with sandy soil and the seeds were disseminated on it. Then the seeds were covered with sandy soil which had been mixed with a bran medium on which Pythium ultimum, pathogen of cucumber damping-off, had been allowed to grow. They were irrigated and allowed to grow at 18° C. under humidity for 13 days, and thereafter control effect was checked.
As a comparison, acetone solutions containing ethaboxam in the predetermined concentration and acetone solutions containing metconazole in the predetermined concentration were prepared and subjected to similar tests.
In order to calculate the control value, the incidence of disease was also determined in the case in which the seeds had not been treated with the agent.
The incidence of disease was calculated by Equation 1 and the control value was calculated by Equation 2 based on the incidence of disease.
Incidence of disease=(Number of no emerging seedlings and number of seedlings in which development of disease was observed)×100/(Number of total disseminated seeds) “Equation 1” Control value=100×(A−B)/A “Equation 2”;
A: Incidence of disease of plant in untreated area
B: Incidence of disease of plant in treated area
Generally, the control value expected for the case in which the given two kinds of active ingredient compounds are mixed and used for the treatment, the so-called control value expectation is calculated from the following Colby's calculating equation. E=X+Y−(X×Y)/100 “Equation 3”;
X: Control value (%) when active ingredient compound A is used for treatment in M g per 100 kg or M ppm of seeds
Y: Control value (%) when active ingredient compound B is used for treatment in N g per 100 kg or N ppm of seeds
E: Control value (%) expected for the case in which active ingredient compound A in M g per 100 kg or M ppm of seeds and active ingredient compound B in N g per 100 kg or N ppm of seeds are mixed and used for treatment (hereinbelow referred to as “control value expectation”) “Synergetic effect (%)” (Actual control value)×100/(Control value expectation)

`CCNc1nc(CC)c(C(=O)NC(C#N)c2cccs2)s1` (stereo not drawn) [Ethaboxam] came in with a Control value expectation in test [1] of 0%. For the same molecule, the Actual control value was determined as 0% in test [1], 25% in test [2] (Ethaboxam 5 g/100 kg-seed alone) and 58% in test [2] (Ethaboxam 10 g/100 kg-seed alone).
Molecule `CC1(C)CCC(Cc2ccc(Cl)cc2)C1(O)Cn1cncn1` (stereo not drawn) [Metconazole] yielded a Control value expectation in test [1] of 0%. Further, the Actual control value in test [1], in test [2] (Metconazole 5 g/100 kg-seed alone), in test [2] (Metconazole 10 g/100 kg-seed alone) and in test [2] (Metconazole 20 g/100 kg-seed alone) was 0% in each case.
